{"source": "patent US7649091B2", "about": "“Orally bioavailable low molecular weight metalloporphyrins as antioxidants” (Eukarion, Inc., priority 2003, dated 2010)", "assay_type_in_all_cases": "in vivo, Balb/c male mice", "key": {"[1]": {"experiment": "Animal bioavailability of Compound 3, i.v. experiment: plasma and organ levels by LC/MS", "settings": "IV, 238 min", "protocol": "(§1) Twenty 8-week-old Balb/c male mice (Charles River, US) were used in all experiments. Mice were kept at a temperature of 22±3° C. and provided with a standard diet and water.\n(§2) For i.v. experiment mice received standard food before and during the experiment. For oral route, mice received no food 3 h before the start of the experiment and no food after.\n0.1 mL of a solution of Compound 3, 3 mg/mL in mannitol 5% (previously sterilized by filtration onto Acrodisc® syringe filter 0.2 μm HT Tuffryn® membrane) was injected in the tail vein. Two animals were killed 0.5 h after injection, two animals were killed 1 h after injection, two animals were killed 2 h after injection and two animals were killed 4 h after injection.\n(§3) At the time of sacrifice, mice were bled by heart puncture. Then organs were removed for biochemical studies (brain, kidney, liver and lung).\nRed blood cells and plasma were separated by addition of heparine (15 μL) and centrifugation (2000 rpm, 5 min). […] The liquid layer (50 μL) was then analysed by LC/MS (MRM procedure, Column PARTISIL 5 ODS-3 RAC II, Cat. no. 4222-225).\nOrgans were washed with 5 ml of distillated water and dried with blotting paper. Volumes of organs were measured by addition of the organ into one half full of water graduated test tube. […]"}, "[2]": {"experiment": "Animal bioavailability of Compound 3, oral route experiment (gavage): plasma and organ levels by LC/MS", "settings": "for Brain: Oral", "protocol": "as §1, §2\nAnimals received by gavage a 0.1 mL of a solution of Compound 3 3 mg/mL in mannitol 5% (previously sterilized by filtration onto Acrodisc® syringe filter […] HT Tuffryn® membrane). Two animals were killed 0.5 h after gavage, two animals were killed 1 h after gavage, two animals were killed 2 h after gavage and two animals were killed 4 h after gavage.\nas §3\nRed blood cells and plasma were separated by addition of heparine (15 μL) and centrifugation (2000 rpm, 5 min). Then 1.5 mL of HPLC mobil phase (Ammonium acetate 3 mM, acetonitrile, methanol, formic acid; 1/1/1/0.07 (v/v) at pH=3) were added to 40 μL of plasma and the mixture was centrifugated (2000 rpm, 5 min). The liquid layer (50 μL) was then analysed by LC/MS (MRM procedure, Column PARTISIL 5 ODS-3 RAC II, Cat. no. 4222-225).\nOrgans were washed with 5 ml of distillated water and dried with blotting paper. Volumes of organs were measured by addition of the organ into one half full of water graduated test tube. Organs were dried a second time with blotting paper and then weighed. A volume of mobil phase (in mL) corresponding to 6 times of the organ weigh (in g) was added to the organ. The mixture was crushed mechanically (with JANKE & KUNKEL, IKA Labortechnik ULTRA-TURRAX T25; 24000 rpm, 1 min), sonicated 30 min and centrifugated 20 min (2000 rpm). To this mixture, 1 mL of the liquid layer was removed and filtrated with Acrodisc CRPTFE® syringe Filter in order to obtain a clear solution suitable for LC/MS analysis."}, "[3]": {"experiment": "Animal bioavailability of Compound 3, i.v. experiment: plasma and organ levels by LC/MS", "settings": "IV, 82 min"}, "[4]": {"settings": "0.1 mL of 3 mg/mL in mannitol 5%, individual mouse"}, "[5]": {"settings": "third line = mean of the two mice"}}, "note": "Values joined by “and” are separate entries in the source; they are usually repeats but may differ in a detail not shown here. Identical values can stand only once.", "data": [{"substance": "{[{(Porphine-5,15-diyl)bis[cyclopropyl-diyl]}](2-)-N^21,N^22,N^23,N^24}manganese(III)acetate [Compound 3]", "values": [{"measurement": "Brain", "setting": "[1]; [4]", "result": "89 ng/g and 91 ng/g"}, {"measurement": "Brain", "setting": "[1]; [5]", "result": 90, "unit": "ng/g"}, {"measurement": "Brain, oral level as percent of IV level", "setting": "[2]; Oral 70 min mean relative to IV 82 min mean (in parentheses)", "result": "(112%)"}, {"measurement": "Brain, oral level as percent of IV level", "setting": "[2]; Oral 234 min mean relative to IV 238 min mean (in parentheses)", "result": "(10%)"}, {"measurement": "Brain", "setting": "[2]; 70 min, 0.1 mL of 3 mg/mL in mannitol 5% by gavage, individual mouse", "result": "88 ng/g and 24 ng/g"}, {"measurement": "Brain", "setting": "[2]; 70 min, third line = mean of the two mice", "result": 56, "unit": "ng/g"}, {"measurement": "Brain", "setting": "[2]; 234 min, 0.1 mL of 3 mg/mL in mannitol 5% by gavage, individual mouse", "result": "8 ng/g and 9 ng/g"}, {"measurement": "Brain", "setting": "[2]; 234 min, third line = mean of the two mice", "result": 9, "unit": "ng/g"}, {"measurement": "Lung", "setting": "[2]; mouse, in vivo, po", "result": 67, "unit": "ng/g"}, {"measurement": "Brain", "setting": "[3]; [4]", "result": "25 ng/g and 75 ng/g"}, {"measurement": "Brain", "setting": "[3]; [5]", "result": 50, "unit": "ng/g"}]}]}
